According to US20060089371A1, “Phenyl or heteroaryl amino alkane derivatives as ip receptor antagonist” (Bayer HealthCare AG, priority 2002, published 2006):

Key:
IP receptor = target: T1, IP receptor (Homo sapiens, UniProt P43119); test: IP receptor binding/cAMP in HEL cells ([3H]-iloprost binding, Assay 1; iloprost-induced cAMP production, Assay 2); conditions: compounds of about 40 to 90% purity, read-out: In vitro activity grade (IC50 class)
T1 construct: one million cells in 160 μl aliquot of cell suspension were put in a well of 96 well plate; host or cells: HEL 92.1.7 human erythroleukemia cells (whole cells)
Method: [Measurement of the [^3H]-iloprost Binding to HEL Cells] (Assay 1)
A human erythloleukemia cell line, HEL 92.1.7, was purchased from American Type Culture Correction and maintained in RPMI-1640 medium (Gibco BRL) supplemented with 10% fetal calf serum (FCS), 2 mM glutamine, 4.5 g/L glucose, 10 mM Hepes, 1 mM sodium pyruvate, 100 U/ml penicillin, and 100 μg/ml streptomycin in a humidified 5% CO2 atmosphere at 37° C. Cells were collected with centrifugation and washed with binding assay buffer (BAB: 50 mM Tris-HCl, 5 mM MgCl2 (pH 7.5)). Cells were suspended at the density of 6.25×10^6 cells/ml in BAB, and one million cells in 160 μl aliquot of cell suspension were put in a well of 96 well plate (Falcon). Then, 20 μl of compound solution, 100 μM of iloprost (for non-specific binding), or buffer alone (total binding), diluted with 1% DMSO in BAB was added. Finally, another 20 μl containing [^3H]-iloprost (0.02 μCi, 0.5-1 pmol) in BAB was added and incubated at room temperature for 30 min with a gentle shaking. Cell suspension was then transferred to a well of MultiScreen plate with GF/C glass filters (Millipore) to harvest cells. Cells were washed twice with 200 μl of ice-cold BAB and the plate was kept at 55° C. for 30 min to dry filters. The filter in the well was punched out to a counting tube and 2 ml of Ultima Gold XR (Packard) was added. [^3H]-radio activity in the filter was measured by a liquid scintillation counter (Beckman, USA).
[Iloprost-Induced cAMP Production Assay in HEL Cells] (Assay 2)
HEL cells were collected with centrifugation and washed with cAMP assay buffer (CAB: Hank's balanced salt solution, 17 mM Hepes, 0.1% bovine serum albumin, 1 mM IBMX, 0.4% DMSO, and 1 mM L-ascorbic acid sodium salt (pH 7.4)). Cells were suspended at the density of 2.5×10^5 cells/ml in CAB, and twenty thousand cells in 80 μl aliquot of cell suspension were put in a well of 96 well plate (Falcon). Then, 10 μl of compound solution diluted with 1% DMSO in CAB or buffer alone was added. The plate was incubated at 37° C. for 30 min. Then, another 10 μl containing 100 nM iloprost in CAB or buffer alone was added and further incubated at 37° C. for 30 min. cAMP content in the well was measured by a cAMP ELISA kit (Applied Biosystems, USA).
The data corresponds to the compounds as yielded by solid phase synthesis and thus to levels of purity of about 40 to 90%. For practical reasons, the compounds are grouped in three classes of activity as follows: IC50=A<0.1 μM≦B<1 μM≦C

T1 sequence (P43119 whole entry): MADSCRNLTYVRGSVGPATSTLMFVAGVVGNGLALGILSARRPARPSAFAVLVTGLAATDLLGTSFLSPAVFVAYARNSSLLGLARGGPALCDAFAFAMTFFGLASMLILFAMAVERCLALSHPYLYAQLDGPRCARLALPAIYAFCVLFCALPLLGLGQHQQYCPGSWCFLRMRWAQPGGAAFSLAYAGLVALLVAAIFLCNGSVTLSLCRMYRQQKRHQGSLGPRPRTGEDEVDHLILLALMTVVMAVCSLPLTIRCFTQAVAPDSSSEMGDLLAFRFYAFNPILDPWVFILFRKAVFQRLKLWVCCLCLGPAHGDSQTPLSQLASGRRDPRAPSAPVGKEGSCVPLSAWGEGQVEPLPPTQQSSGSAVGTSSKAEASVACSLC

Row | Structure (SMILES) | IC50 (IP receptor) | melting point
1 | O=C(O)C(Cc1ccccc1)Nc1cc(-c2ccc(NS(=O)(=O)c3ccc(F)cc3)cc2)ncn1 (stereo not shown) [Example 15-2] | > 1000 nM | 217 to 220 °C (dec.)
2 | O=C(O)C(Cc1ccccc1)Nc1cccc(-c2ccc(OCc3ccccc3F)cc2)c1 (stereo not shown) [Example 24-4] | < 100 nM | 158 to 161 °C
3 | O=C(NO)C(Cc1ccccc1)Nc1cc(-c2ccc(OCc3ccccc3)cc2)ncn1 (stereo not shown) [Example 26-1, N-{6-[4-(Benzyloxy)phenyl]pyrimidin-4-yl}-N-hydroxyphenylalaninamide] | < 100 nM | 235 to 239 °C
4 | O=C(O)C(Cc1ccccc1)Nc1cccc(-c2ccc(OCc3cccc(F)c3)cc2)c1 (stereo not shown) [Example 24-5] | < 100 nM | 167 to 169 °C
5 | O=C(c1ccc(-c2cc(NC(Cc3ccccc3)C(=O)O)ncn2)cc1)C1CCCC1 (stereo not shown) [Example 17-3] | < 100 nM | 114 to 116 °C
6 | CC(C)COc1ccc(-c2cc(NC(Cc3ccccc3)C(=O)O)ncn2)cc1 (stereo not shown) [Example 2-17] | < 100 nM | 210 to 213 °C (dec.)
7 | CC(C)(C)OC(=O)Nc1ccc(-c2cc(NC(Cc3ccccc3)C(=O)O)ncn2)cc1 (stereo not shown) [Example 14-2] | 100 to 1000 nM | 153 to 155 °C (dec.)
8 | O=C(O)C(Cc1ccccc1)Nc1cc(-c2ccc(OCCc3ccccc3)cc2)ncn1 (stereo not shown) [Example 2-16] | < 100 nM | 214 to 216 °C (dec.)
9 | O=C(O)C(Cc1ccc(F)cc1)Nc1cc(-c2ccc(OCC3CC3)cc2)ncn1 (stereo not shown) [Example 1-42] | < 100 nM | 126 to 128 °C
10 | CC(C)Oc1ccc(-c2cc(NC(Cc3ccccc3)C(=O)O)ncn2)cc1 (stereo not shown) [Example 2-12] | < 100 nM | 201 to 204 °C (dec.)
11 | O=C(O)C(Cc1ccccn1)Nc1cc(-c2ccc(OCc3ccccc3)cc2)ncn1 (stereo not shown) [Example 1-31] | < 100 nM | 218 to 223 °C
12 | O=C(c1ccccc1)c1ccc(-c2cc(N[C@@H](Cc3ccccc3)C(=O)O)ncn2)cc1 [Example 17-1, N-[6-(4-Benzoylphenyl)pyrimidin-4-yl]phenylalanine] | < 100 nM | 109 to 111 °C
13 | O=C(O)[C@H](Cc1ccccc1)Nc1cc(-c2ccc(OCc3ccccc3)nc2)ncn1 [Example 25-1, N-{6-[6-(benzyloxy)pyridin-3-yl]pyrimidin-4-yl}phenylalanine] | < 100 nM | 130 to 133 °C
14 | O=C(O)C(Cc1c[nH]cn1)Nc1cc(-c2ccc(OCc3ccccc3)cc2)ncn1 (stereo not shown) [Example 1-39] | 100 to 1000 nM | 183 to 188 °C
15 | O=C(O)C(Cc1ccccc1)Nc1cc(-c2ccc(OCc3ccccc3)cc2F)ncn1 (stereo not shown) [Example 1-57] | 100 to 1000 nM | 133 to 136 °C
16 | O=C(O)[C@H](Cc1ccccc1)Nc1cc(-c2ccc(OCC3CC3)cc2)ncn1 [Example 2-1, N-{6-[4-(Cyclopropylmethoxy)phenyl]pyrimidin-4-yl}phenylalanine] | < 100 nM | 216 to 218 °C
17 | O=C(O)C(Cc1ccccc1)Nc1cc(-c2ccc(OCCN3CCCC3)cc2)ncn1 (stereo not shown) [Example 2-22] | > 1000 nM | 117 to 120 °C
18 | CCCCC(Nc1cc(-c2ccc(OCC3CC3)cc2)ncn1)C(=O)O (stereo not shown) [Example 1-41] | 100 to 1000 nM | 100 to 104 °C
19 | O=C(O)C(CC(F)(F)F)Nc1cc(-c2ccc(OCc3ccccc3)cc2)ncn1 (stereo not shown) [Example 1-32] | < 100 nM | 156 to 158 °C
20 | O=C(O)C(Cc1ccccc1)Nc1cc(-c2ccc(OCc3cccc(F)c3)cc2)ncn1 (stereo not shown) [Example 2-3] | < 100 nM | 175 to 177 °C
21 | CCCCC(Nc1cc(-c2ccc(OCc3ccccc3)cc2)ncn1)C(=O)O (stereo not shown) [Example 1-13] | < 100 nM | 187 °C

Row | Structure (SMILES) | IC50 (IP receptor) | melting point
22 | CCCCC(Nc1cc(-c2ccc(-c3ccccc3)cc2)ncn1)C(=O)O (stereo not shown) [Example 1-56] | 100 to 1000 nM | 110 to 120 °C
23 | CSCCC(Nc1cc(-c2ccc(OCc3ccccc3)cc2)ncn1)C(=O)O (stereo not shown) [Example 1-17] | < 100 nM | 210 °C
24 | O=C(O)C(Cc1ccccc1)Nc1cc(-c2ccc(OCc3ccc(F)cc3)cc2)ncn1 (stereo not shown) [Example 2-7] | < 100 nM | 228 to 230 °C (dec.)
25 | O=C(O)[C@@H](Cc1ccccc1)Nc1cc(-c2ccc(OCC3CC3)cc2)ncn1 [Example 1-2, N-{6-[4-(Cyclopropylmethoxy)phenyl]pyrimidin-4-yl}-D-phenylalanine] | < 100 nM | 180 to 183 °C (dec.)
26 | COCCOc1ccc(-c2cc(NC(Cc3ccccc3)C(=O)O)ncn2)cc1 (stereo not shown) [Example 2-24] | < 100 nM | 190 to 193 °C (dec.)
27 | O=C(O)C(Cc1ccc(Cl)cc1)Nc1cc(-c2ccc(OCC3CC3)cc2)ncn1 (stereo not shown) [Example 1-40] | < 100 nM | 166 to 169 °C
28 | O=C(O)C(Cc1ccccc1)Nc1cccc(-c2ccc(OCc3ccccc3)cc2)n1 (stereo not shown) [Example 3-3] | > 1000 nM | 81 to 84 °C
29 | O=C(O)C(Cc1ccccc1)Nc1cc(-c2ccc(-c3cccc(-c4ccccc4)c3)cc2)ncn1 (stereo not shown) [Example 11-6] | 100 to 1000 nM | 124 to 126 °C (dec.)
30 | CCCCC(Nc1cc(-c2ccc(OCc3cc(F)cc(F)c3)cc2)ncn1)C(=O)O (stereo not shown) [Example 2-46] | < 100 nM | 141 to 147 °C
31 | COCC(Nc1cc(-c2ccc(OCc3ccccc3)cc2)ncn1)C(=O)O (stereo not shown) [Example 1-34] | < 100 nM | 115 to 120 °C
32 | O=C(O)[C@H](Cc1ccccc1)Nc1ccnc(-c2ccc(OCc3ccccc3)cc2)c1 [Example 28-1, N-{2-[4-(Benzyloxy)phenyl]pyridin-4-yl}phenylalanine] | < 100 nM | 137 to 139 °C
33 | CN(c1cc(-c2ccc(OCc3ccccc3)cc2)ncn1)C(Cc1ccccc1)C(=O)O (stereo not shown) [Example 1-58] | < 100 nM | 112 to 115 °C
34 | COc1cc(-c2ccc(-c3cc(NC(Cc4ccccc4)C(=O)O)ncn3)cc2)cc(OC)c1OC (stereo not shown) [Example 11-12] | 100 to 1000 nM | 120 to 123 °C
35 | CC(Cc1ccccc1)(Nc1cc(-c2ccc(OCc3ccccc3)cc2)ncn1)C(=O)O (stereo not shown) [Example 1-19] | < 100 nM | 187 °C
36 | O=C(O)C(Cc1ccccn1)Nc1cc(-c2ccc(OCc3ccccc3F)cc2)ncn1 (stereo not shown) [Example 2-32] | < 100 nM | 84 to 87 °C
37 | O=C(O)C(Cc1ccccn1)Nc1cc(-c2ccc(OCC3CC3)cc2)ncn1 (stereo not shown) [Example 1-44] | 100 to 1000 nM | 105 to 107 °C
38 | O=C(O)C(Cc1ccccc1)Nc1cc(-c2ccc(-c3ccc4ccccc4c3)cc2)ncn1 (stereo not shown) [Example 11-5] | < 100 nM | 130 to 132 °C (dec.)
39 | O=C(O)C(Cc1ccccc1)Nc1cc(-c2ccc(OCc3ccccc3)cc2)ccn1 (stereo not shown) [Example 3-4] | < 100 nM | 194 to 196 °C
40 | O=C(O)C(Cc1ccccc1)Nc1ncnc(-c2ccc(OCc3ccccc3)cc2)c1F (stereo not shown) [Example 1-20] | < 100 nM | 145 to 146 °C
41 | CS(=O)(=O)CCC(Nc1cc(-c2ccc(OCc3ccccc3)cc2)ncn1)C(=O)O (stereo not shown) [Example 1-24] | 100 to 1000 nM | 138 °C
